The record followed here is patent US20180243190A1, “ACTIVATORS OF NRF2-DEPENDENT PHOTOPROTECTION AND RELATED USES THEREOF” (THE ARIZONA BOARD OF REGENTS ON BEHALF OF THE UNIVERSITY OF …, priority 2015, published 2018).

The subject of the test is cutaneous NRF2. In words: Cutaneous NRF2 activation after systemic administration (immunoblot, IHC, RT-PCR of skin). Format: in vivo, SKH-1 mice. From the text:
To explore the potential systemic photoprotective activity of bixin in a murine skin sunburn model, the feasibility of upregulating cutaneous NRF2 activity by systemic administration was first examined. It has been reported earlier that efficient cutaneous accumulation of dietary carotenoids requires prolonged nutritional supplementation over weeks and that pharmacokinetic parameters of cutaneous delivery of dietary carotinoids differ between humans and mice. Therefore, in order to circumvent the more complex pharmacokinetics associated with dietary supplementation, an intraperitoneal (i.p.) route for bixin systemic administration followed by examination of cutaneous NRF2 status was chosen. After i.p. injection of bixin (200 mg/kg) performed in Nrf2^+/+ and Nrf2^−/− mice, plasma was collected at 0, 1, 2, 4, 8, 16, 24, 48 and 72 h after injection followed by HPLC-photodiode array detection (FIG. 4A-C). […] Next, efficacy of various bixin treatment regimens (differing with regard to total dose and time after injection) for maximum activation of the NRF2 pathway in murine skin was determined (FIG. 4D).
Next, the feasibility of bixin-induced cutaneous protection was studied in a solar UV photodamage model. Nrf2^+/+ and Nrf2^−/− mice were i.p. injected with either corn oil (carrier control) or bixin (200 mg/kg) 48 h before solar UV exposure (240 mJ/cm^2 UVB; 4.4 J/cm^2 UVA). 24 h after UV exposure back skin tissue was then collected followed by immunohistochemical (IHC) analysis. […] Moreover, UV exposure alone activated the NRF2 response in murine skin, effects not detectable in Nrf2^−/− mice (FIG. 5).
Total RNA was extracted from HaCaT cells and mouse skin tissues using TRIzol (Invitrogen). Equal amounts of mRNA were used to generate cDNA using the M-MLV Reverse Transcriptase synthesis kit according to the manufacturer's instructions (Promega). RT-PCR and primer sequences of NRF2, KEAP1, GCLM, AKR1C1 and GAPDH were described previously to evaluate mRNA expression using the LightCycler 480 system (Roche). Quantification of cDNA amount for mouse Nrf2, Keap1, Gclm, and Akr1c1 in each skin tissue sample was performed using the KAPA SYBR FAST qPCR Kit (Kapa Biosystems).
Nrf2^+/+ and Nrf2^−/− SKH-I mice were obtained by breeding Nrf2 heterozygous mice generated by back-crossing Nrf2^−/− C57BL/6 mice onto the SKH-1 hairless mouse genetic background for at least six generations (JAX® Mice, The Jackson Laboratory). All animals received water and food ad libitum and were handled according to the Guide for the Care and Use of Laboratory Animals; the protocols were approved by the University of Arizona Institutional Animal Care and Use Committee. Eight-week-old Nrf2^+/+ and Nrf2^−/− mice were randomly allocated into four groups (n=6): (i) control (corn oil); (ii) bixin (200 mg/kg, dissolved in corn oil); (iii) UV; (iv) bixin+UV. Bixin was administered through intraperitoneal (i.p.) injection 48 h before UV exposure.
24 h after UV exposure, the mice were euthanized and back skin was collected and divided into two parts: one part was frozen in liquid nitrogen for total RNA extraction and protein analysis; the other part was fixed in 10% buffered formalin and embedded in paraffin for histological and immunohistochemical analyses. Tissue sections (4 μm) were baked and deparaffinized. Hematoxylin and eosin (H&E) staining was performed for pathological examination. […]

Consider `COC(=O)/C=C/C(C)=C\C=C\C(C)=C\C=C\C=C(C)\C=C\C=C(C)\C=C\C(=O)O` [bixin], for which, where the note is “200 mg/kg i.p.”, the “skin mRNA levels of Nrf2” value is “did not increase” and the “skin protein or mRNA levels of Keap1” value is “no effects”. The “upregulation of cutaneous protein levels of NRF2 and its targets (GCLM and AKR1C1), comparison of regimens” value (200 mg/kg, 72 h after injection, Nrf2+/+ mice) was “most effective”. For the same compound, for the setting “Nrf2+/+ mice, 200 mg/kg i.p.”, the “cutaneous NRF2 pathway (NRF2, GCLM, AKR1C1 protein and mRNA)” value is on record as “dramatically induced”. Under “dosage amounts less than 10 mg/kg”, the “activation of NRF2 pathway related activity within skin cells” value was “insufficient”.
